Test results: patent US20230062486A1, “KRAS G12C INHIBITOR AND PHARMACEUTICAL USE THEREOF” (Betta Pharmaceuticals Co., LTD, priority 2019, published 2023)

Legend:
MIA-PACA-2 cells = assay: Cell proliferation assay, MIA-PACA-2 cells (Cell-titer Glo); type: cell-based; conditions: Homo sapiens; inhibiting MIA-PACA-2 cells, 96-well ultra-low adsorption plate, 96 h incubation, Cell-titer Glo luminescence
Protocol: (§1) Pave the MIA-PACA-2 cells into a 96-well ultra-low adsorption plate at 600 cells, 160 μL/well. After incubating overnight, compound solutions of gradient concentration was prepared, and added 40 μL of DMSO solution of the test compound of each concentration to the cells of each well. The final concentration of the compound is 10000, 2000, 400, 80, 16, 3.2, 0.64, 0.12, 0.025, 0 nM (the final concentration of DMSO is 0.25%). Incubated for 96 h at 37° C. and 5% CO2. 50 μL of Cell-titer Glo working solution was added to each well, shaked and mixed, and incubated at room temperature for 10 minutes. The multi-functional microplate reader read the luminescence value, and converted the luminescence value reading into inhibition percentage.
(§2) Inhibition percentage=(maximum value−reading)/(maximum value−minimum value)*100.
(§3) The “maximum value” was the DMSO control, the “minimum value” indicates the cell-free control group.
(§4) Graphpad Prism software was used to perform curve fitting and obtain IC50 value.
Refer to Table 2 for the IC50 data of some compounds in the examples inhibiting MIA-PACA-2 cells.

H358 cells = assay: Cell proliferation assay, H358 cells (Cell-titer Glo); type: cell-based; conditions: Homo sapiens, NCI-H358; inhibiting H358 cells, 96-well ultra-low adsorption plate, 96 h incubation, Cell-titer Glo luminescence
Protocol: as §1, with “the H358” for “the MIA-PACA-2”, “cells on” for “cells into”, “plate with 2000 cells and 190” for “plate at 600 cells, 160”, “added 10” for “added 40”, “10000, 3333.3, 1111.1, 370.4, 123.5, 41.2, 13.7, 4.6, 1.5,” for “10000, 2000, 400, 80, 16, 3.2, 0.64, 0.12, 0.025,”
as §2, §3, §4
Refer to table 3 for the IC50 data of some compounds in the Examples for inhibiting H358 cells.

Row | IC50 (MIA-PACA-2 cells) | IC50 (H358 cells) | SMILES
1 | 1 to 10 µM |  | C=CC(=O)N1CCn2c(nnc2-c2cc(Cl)c(-c3c(F)ccc(Cl)c3O)c(OCC(F)(F)F)c2)C1 [Example 16, 1-(3-(2,3′-dichloro-6′-fluoro-2′-hydroxy-6-(2,2,2-trifluoroethoxy)-[1,1′-biphenyl]-4-yl)-5,6-dihydro-[1,2,4]triazolo[4,3-a]pyrazin-7(8H)-yl)prop-2-en-1-one]
2 | 1 to 10 µM |  | C=CC(=O)N1CCn2c(cnc2-c2cc(F)c(-c3c(F)ccc(Cl)c3O)c(Cl)c2)C1 [Example 9, 1-(3-(2,3′-dichloro-6,6′-difluoro-2′-hydroxy-[1,1′-biphenyl]-4-yl)-5,6-dihydroimidazo[1,5-a]pyrazin-7(8H)-yl)prop-2-en-1-one]
3 | > 10 µM |  | C=CC(=O)N1CCn2c(cnc2-c2cc(F)c(-c3c(O)c(Cl)cc(Cl)c3F)c(Cl)c2)C1 [Example 10, 1-(3-(2,3′,5′-trichloro-2′,6-difluoro-6′-hydroxy-[1,1′-biphenyl]-4-yl)-5,6-dihydroimidazo[1,5-a]pyrazin-7(8H)-yl)prop-2-en-1-one]
4 | ≤ 1 µM |  | C=CC(=O)N1CCn2c(nc(-c3ccccc3C(C)C)c2-c2cc(F)c(-c3c(F)ccc(Cl)c3O)c(Cl)c2)C1 [Example 13, 1-(3-(2,3′-dichloro-6,6′-difluoro-2′-hydroxy-[1,1′-biphenyl]-4-yl)-2-(2-isopropylphenyl)-5,6-dihydroimidazo[1,2-a]pyrazin-7(8H)-yl)prop-2-en-1-one]
5 | > 10 µM |  | C=CC(=O)N1CCn2c(-c3cc(F)c(-c4c(F)ccc(Cl)c4O)c(Cl)c3)cnc2C1 [Example 15, 1-(3-(2,3′-dichloro-6,6′-difluoro-2′-hydroxy-[1,1′-biphenyl]-4-yl)-5,6-dihydroimidazo[1,2-a]pyrazin-7(8H)-yl)prop-2-en-1-one]
6 | > 10 µM |  | C=CC(=O)N1CCn2c(nc(C(F)(F)F)c2-c2cc(F)c(-c3c(F)ccc(Cl)c3O)c(Cl)c2)C1 [Example 18, 1-(3-(2,3′-dichloro-6,6′-difluoro-2′-hydroxy-[1,1′-biphenyl]-4-yl)-2-(trifluoromethyl)-5,6-dihydroimidazo[1,2-a]pyrazin-7(8H)-yl)prop-2-en-1-one]
7 | 1 to 10 µM |  | C=CC(=O)N1CCn2c(nc(-c3ccccc3C(C)C)c2-c2cc(F)c(-c3c(O)c(Cl)cc(Cl)c3F)c(Cl)c2)C1 [Example 14, 1-(2-(2-isopropylphenyl)-3-(2,3′,5′-trichloro-2′,6-difluoro-6′-hydroxy-[1,1′-biphenyl]-4-yl)-5,6-dihydroimidazo[1,2-a]pyrazin-7(8H)-yl)prop-2-en-1-one]
8 | ≤ 1 µM |  | C=CC(=O)N1CCn2c(nnc2-c2cc(Cl)c(-c3c(O)cccc3F)c(OCC(F)(F)F)c2)C1 [Example 17, 1-(3-(2-chloro-2′-fluoro-6′-hydroxy-6-(2,2,2-trifluoroethoxy)-[1,1′-biphenyl]-4-yl)-5,6-dihydro-[1,2,4]triazolo[4,3-a]pyrazin-7(8H)-yl)prop-2-en-1-one]
9 | > 10 µM |  | C=CC(=O)N1CCn2c(nnc2-c2cc(F)c(-c3c(O)cccc3F)c(C=C)c2)C1 [Example 11, 1-(3-(2,2′-difluoro-6′-hydroxy-6-vinyl-[1,1′-biphenyl]-4-yl)-5,6-dihydro-[1,2,4]triazolo[4,3-a]pyrazin-7(8H)-yl)prop-2-en-1-one]
10 | > 10 µM |  | C=CC(=O)N1CCn2c(nc(-c3ccccc3C(C)C)c2-c2cc(F)c(-c3c(O)cccc3F)c(Cl)c2)C1 [Example 12, 1-(3-(2-chloro-2′,6-difluoro-6′-hydroxy-[1,1′-biphenyl]-4-yl)-2-(2-isopropylphenyl)-5,6-dihydroimidazo[1,2-a]pyrazin-7(8H)-yl)prop-2-en-1-one]
11 | 1 to 10 µM | 1 to 10 µM | C=CC(=O)N1CCn2c(cnc2-c2cc(F)c(-c3c(O)cccc3F)c(Cl)c2)C1 [Example 8, 1-(3-(2-chloro-2′,6-difluoro-6′-hydroxy-[1,1′-biphenyl]-4-yl)-5,6-dihydroimidazo[1,5-a]pyrazin-7(8H)-yl)prop-2-en-1-one]

More lines, now with the values behind:

Row | SMILES | IC50 (MIA-PACA-2 cells) | IC50 (H358 cells)
12 | C=CC(=O)N1CCn2c(nnc2-c2cc(F)c(-c3c(O)c(Cl)cc(Cl)c3F)c(Cl)c2)C1 [Example 3, 1-(3-(2,3′,5′-trichloro-2′,6-difluoro-6′-hydroxy-[1,1′-biphenyl]-4-yl)-5,6-dihydro-[1,2,4]triazolo[4,3-a]pyrazin-7(8H)-yl)prop-2-en-1-one] | ≤ 1 µM | ≤ 1 µM
13 | C=CC(=O)N1CCn2c(-c3cc(F)c(-c4c(O)cccc4F)c(Cl)c3)cnc2C1 [Example 6, 1-(3-(2-chloro-2′,6-difluoro-6′-hydroxy-[1,1′-biphenyl]-4-yl)-5,6-dihydroimidazo[1,2-a]pyrazin-7(8H)-yl)prop-2-en-1-one] | ≤ 1 µM | 1 to 10 µM
14 | C=CC(=O)N1CCn2c(nnc2-c2cc(F)c(-c3c(F)ccc(Cl)c3N)c(Cl)c2)C1 [Example 7, 1-(3-(2′-amino-2,3′-dichloro-6,6′-difluoro-[1,1′-biphenyl]-4-yl)-5,6-dihydro-[1,2,4]triazolo[4,3-a]pyrazin-7(8H)-yl)prop-2-en-1-one] | > 10 µM | > 10 µM
15 | C=C(F)C(=O)N1CCn2c(nnc2-c2cc(F)c(-c3c(O)cccc3F)c(Cl)c2)C1 [Example 4, 1-(3-(2-chloro-2′,6-difluoro-6′-hydroxy-[1,1′-biphenyl]-4-yl)-5,6-dihydro-[1,2,4]triazolo[4,3-a]pyrazin-7(8H)-yl)-2-fluoroprop-2-en-1-one] | > 10 µM | > 10 µM
16 | C=CC(=O)N1CCn2c(nnc2-c2cc(F)c(-c3c(O)ccc(Cl)c3F)c(Cl)c2)C1 [Example 2, 1-(3-(2,3′-dichloro-2′,6-difluoro-6′-hydroxy-[1,1′-biphenyl]-4-yl)-5,6-dihydro-[1,2,4]triazolo[4,3-a]pyrazin-7(8H)-yl)prop-2-en-1-one] | ≤ 1 µM | ≤ 1 µM
17 | C=CC(=O)N1CCn2c(nnc2-c2cc(F)c(-c3c(C)ccc4[nH]ncc34)c(Cl)c2)C1 [Example 5, 1-(3-(3-chloro-5-fluoro-4-(5-methyl-1H-indazol-4-yl)phenyl)-5,6-dihydro-[1,2,4]triazolo[4,3-a]pyrazin-7(8H)-yl)prop-2-en-1-one] | 1 to 10 µM | 1 to 10 µM
18 | C=CC(=O)N1CCn2c(nnc2-c2cc(F)c(-c3c(O)cccc3F)c(Cl)c2)C1 [Example 1, 1-(3-(2-chloro-2′,6-difluoro-6′-hydroxy-[1,1′-biphenyl]-4-yl)-5,6-dihydro-[1,2,4]triazolo[4,3-a]pyrazin-7(8H)-yl)prop-2-en-1-one] | 1 to 10 µM | 1 to 10 µM
